Several values for one entry are separate records, joined by “and”; a condition that tells them apart may be missing. Identical values can stand only once. Entries after “also recorded” stand apart in the source; their conditions may differ. Like-named read-outs stand apart in the source and are kept apart here.
How the values were obtained:
[1] = rat, in vivo
[2] = Antiphlogistic effect, carrageenin-oedema test (Series 1, Table 3)
Protocol: The antiphlogistic effects were studied on Wistar rats of both sexes, animal subjects found to be particularly prone to indomethacin ulcerogenisis, each weighing 100 to 150 g. The animals were starved for 24 hours, and then 0.1 ml portions of a 1% carrageenin solution were injected under mild ether anaesthesia into the plantar region of one of the hind paws in order to provoke inflammation (oedema). The antiphlogistic agent or a combination thereof was introduced into the stomach of the animals via a stomach tube immediately before injecting the carrageenin solution. 4 hours after this treatment the animals were sacrificed, and both hind paws were amputated above the ankles. The paws were weighed, and the oedema weight was calculated from the weight difference of the treated and untreated paws.

in vivo [3] = details: rat, po
in vivo [4] = details: rat, po; remark: listed apart in the source
in vivo [5] = details: rat, po; remark: listed apart in the source
[6] = general statement; cited from earlier work
[7] = rat, in vivo; for Analgesic ED50 / Therapeutical index LD50/ED50 (C): po
[8] = rat, in vivo; remark: listed apart in the source
[9] = 3-day gastrointestinal side-effect test on non-starved animals (Table 4); format: in vivo, rats
Protocol: In the following tests animals treated for 3 days with various combinations of indomethacin and sodium salicylate were examined. The non-starved test animals were treated orally for 3 days with compositions containing 20 mg/kg of indomethacin and increasing amounts of sodium salicylate.

[10] = treated subsequently with Na-salicylate; cited from earlier work
[11] = rat, in vivo; for ED50 at 180 min: po
in vivo [12] = details: rat, po; remark: listed apart in the source
[13] = Gastric ulcerogenic side-effects, starved rats (Series 1, Tables 1 and 2); details: for No. of ulcer/stomach / Ulcer-free animals % / Ulcer-free animals No.: 4 h
prostaglandin synthesis = details: listed as Na-salicylate; cited from earlier work
[14] = indomethacin 3 × 20 mg/kg p.o. alone

CC(=O)Oc1ccccc1C(=O)O [Aspirin, acetylsalicylic acid]
ulcerogenic side-effects when administered together with sodium salicylate [1]: can also be antagonized effectively
main antiphlogistic effects when administered together with sodium salicylate [2]: remain unchanged, or even the antiphlogistic effects of the two active agents are superimposed

COc1ccc2c(c1)c(CC(=O)O)c(C)n2C(=O)c1ccc(Cl)cc1 [Indomethacin]
TD50 at 48 h (in vivo [3]): 14 mg/kg
Inhibition of oedema, 3rd day, left (challenged) foot (daily dose 0.65 mg/kg p.o.): 26.7 percentage of control
Inhibition of oedema, 21st day, left foot (daily dose 0.65 mg/kg p.o.): 46.6 percentage of control
Inhibition of oedema, 21st day, right foot (daily dose 0.65 mg/kg p.o.): 47.2 percentage of control
Inhibition of oedema, 3rd day, left (challenged) foot (daily dose 1.25 mg/kg p.o.): 36.3 percentage of control
Inhibition of oedema, 21st day, left foot (daily dose 1.25 mg/kg p.o.): 46.7 percentage of control
Inhibition of oedema, 21st day, right foot (daily dose 1.25 mg/kg p.o.): 35.6 percentage of control
Inhibition of oedema, 3rd day, left (challenged) foot (daily dose 2.50 mg/kg p.o.): 36.8 percentage of control
Inhibition of oedema, 21st day, left foot (daily dose 2.50 mg/kg p.o.): 58.0 percentage of control
Inhibition of oedema, 21st day, right foot (daily dose 2.50 mg/kg p.o.): 72.6 percentage of control
Oedema-inhibiting effect % ([2]; indomethacin 5 mg/kg p.o. alone): 40%
Oedema-inhibiting effect % ([2]; indomethacin 10 mg/kg p.o. alone): 45%
selectivity ratio (in vivo [4]): 5.2
LD50 (in vivo [5]): 12.5 mg/kg
ulcerating potency among non-steroid antiinflammatory agents [6]: most potent ulcerating compound
Relative intestinal toxicity IUD50/ED50 (C) [7]: 3.8
Analgesic ED50 [7]: 3.65 mg/kg
Therapeutical index LD50/ED50 (C) [7]: 3.4
acute toxicity of indomethacin alone relative to combination with Na-salicylate [8]: 72 fold
Died animals No. [9, 14]: 33 No.
Ulcerous animals % [9, 14]: 100%
Ulcerous animals No. [9, 14]: 45 No.
ulcers in the intestines of the survivors ([9]; indomethacin only, 20 mg/kg for 3 days, orally): clearly visible ulcers appeared in the intestines of the survivors
mortality at 72 h ([9]; rat, in vivo, po, indomethacin 3 × 20 mg/kg p.o. alone, 3rd day, read-out: Died animals %): 73%
reduction of indomethacin blood levels [10]: 30-50%
Inhibition of oedema 30 min following carrageenin [11]: 23.6 and 42.3 and 42.7
Inhibition of oedema 180 min following carrageenin [11]: 30.5 and 53.0 and 53.4
Relative intestinal toxicity IUD50/ED50 (A) [11]: 5.8
ED50 at 180 min [11]: 2.4 mg/kg
TD50 at 4 h (in vivo [12]): 5 mg/kg

O=C(O)c1cccnc1Nc1cccc(C(F)(F)F)c1 [Niflumic acid]
ulcerogenic side-effects when administered together with sodium salicylate [1]: can also be antagonized effectively
main antiphlogistic effects when administered together with sodium salicylate [2]: remain unchanged, or even the antiphlogistic effects of the two active agents are superimposed

CCCCC1C(=O)N(c2ccccc2)N(c2ccccc2)C1=O [Phenylbutazone, 4-butyl-1,2-diphenyl-pyrazolidine-3,5-dione]
ulcerogenic side-effects when administered together with sodium salicylate [1]: can also be antagonized effectively
main antiphlogistic effects when administered together with sodium salicylate [2]: remain unchanged, or even the antiphlogistic effects of the two active agents are superimposed

O=C([O-])c1ccccc1O.[Na+] [Sodium salicylate]
Oedema-inhibiting effect % ([2]; sodium salicylate 50 mg/kg p.o. alone): 15%
Oedema-inhibiting effect % ([2]; sodium salicylate 100 mg/kg p.o. alone): 43%
selectivity ratio (in vivo [4]): 7.5
LD50 (in vivo [5]): 2400 mg/kg
Analgesic ED50 [7]: 513 mg/kg
Therapeutical index LD50/ED50 (C) [7]: 4.6
No. of ulcer/stomach ([13]; 50 mg/kg p.o.): 0.1 ulcer/stomach
Ulcer-free animals % ([13]; 50 mg/kg p.o.): 82%
Ulcer-free animals No. ([13]; 50 mg/kg p.o.): 37 No.
No. of ulcer/stomach ([13]; 100 mg/kg p.o.): 0.1 ulcer/stomach
Ulcer-free animals % ([13]; 100 mg/kg p.o.): 96%
Ulcer-free animals No. ([13]; 100 mg/kg p.o.): 27 No.
No. of ulcer/stomach ([13]; 200 mg/kg p.o.): 1.2 ulcer/stomach
Ulcer-free animals % ([13]; 200 mg/kg p.o.): 50%
Ulcer-free animals No. ([13]; 200 mg/kg p.o.): 37 No.
No. of ulcer/stomach ([13]; 400 mg/kg p.o.): 1.1 ulcer/stomach
Ulcer-free animals % ([13]; 400 mg/kg p.o.): 71%
Ulcer-free animals No. ([13]; 400 mg/kg p.o.): 32 No.
gastrointestinal hemorrhagic or ulcerogenic side-effects of other non-steroidal antiphlogistic agents, specifically indomethacin ([13]; Series 1 discussion): antangonizes the gastrointestinal hemmorhagic or ulcerogenic side-effects
ED50 at 180 min [11]: 320 mg/kg
inhibition of prostaglandin synthesis (prostaglandin synthesis): except Na-salicylate; also recorded: practically ineffective as a prostaglandin inhibitor
